Assay results from patent US9149038B2, “4-amino-6-(heterocyclic)picolinates and 6-amino-2-(heterocyclic)pyrimidine-4-carboxylates and their use as herbicides” (Dow AgroSciences LLC, priority 2013, dated 2015).
Read-outs that look alike come from different tables or passages of the source.

Tested on: Direct Seeded Rice and weed species
Test: Postemergence herbicidal activity in direct seeded rice, visual rating after 20-22 days and probit GR20/GR50/GR80/GR90 (Table 14)
Type: in vivo
Settings: for pest or weed control at 17.5 g/ha / pest or weed control at 35 g/ha / pest or weed control at 70 g/ha: post-emergence, 504 h, postemergence; for pest or weed control at 17.5 g/ha: 17.5 g ai/ha; for pest or weed control at 35 g/ha: 35 g ai/ha; for pest or weed control at 70 g/ha: 70 g ai/ha
From the text: Herbicidal evaluations were made visually on a scale of 0 to 100 where 0 represents no activity and 100 represents complete plant death. Seeds or nutlets of the desired test plant species were planted in a soil matrix prepared by mixing a loam soil (43 percent silt, 19 percent clay, and 38 percent sand, with a pH of about 8.1 and an organic matter content of about 1.5 percent) and river sand in an 80 to 20 ratio. The soil matrix was contained in plastic pots with a surface area of 139.7 cm^2. When required to ensure good germination and healthy plants, a fungicide treatment and/or other chemical or physical treatment was applied. The plants were grown for 10-17 d in a greenhouse with an approximate 14-h photoperiod which was maintained at about 29° C. during the day and 26° C. during the night. Nutrients and water were added on a regular basis and supplemental lighting was provided with overhead metal halide 1000-Watt lamps as necessary. The plants were employed for testing when they reached the second or third true leaf stage. A weighed amount, determined by the highest rate to be tested, of each test compound was placed in 25 mL glass vials and dissolved in a volume of 97:3 v/v acetone-DMSO to obtain 12× stock solutions. […] The concentrated stock solutions were added to the spray solutions so that the final acetone and DMSO concentrations were 16.2% and 0.5%, respectively. Spray solutions were diluted to the appropriate final concentrations with the addition of 10 mL of an aqueous mixture of 1.5% (v/v) Agri-dex crop oil concentrate. The final spray solutions contained 1.25% (v/v) Agri-dex crop oil concentrate. Compound requirements are based upon a 12 mL application volume at a rate of 187 L/ha. Formulated compounds were applied to the plant material with an overhead Mandel track sprayer equipped with […] nozzles calibrated to deliver 187 L/ha over an application area of 0.503 square meters (m^2) at a spray height of 18 inches (43 cm) above average plant canopy height. Control plants were sprayed in the same manner with the solvent blank. The treated plants and control plants were placed in a greenhouse as described above and watered by sub-irrigation to prevent wash-off of the test compounds. After 20-22 days, the condition of the test plants, compared with that of the untreated plants, was determined visually and scored on a scale of 0 to 100 percent where 0 corresponds to no injury and 100 corresponds to complete kill and are presented as indicated in Table 4. By applying the well-accepted probit analysis as described by J. Berkson in Journal of the American Statistical Society, 48, 565 (1953) and by D. Finney in “Probit Analysis” Cambridge University Press (1952), herbicidal injury of a specific compound at various rates can be used to calculate GR20, GR50, GR80 and GR90 values, which are defined as growth reduction factors that correspond to the effective dose of herbicide required to provide plant growth reduction (GR) of 20 percent, 50 percent, 80 percent and 90 percent, respectively. Probit analysis was applied to data collected from multiple dose rates of individual compounds utilizing the procedures explained in the following examples. The data for some of the dose rates and analysis of all of the dose rates are captured in the following tables.

[1] = BRAPP (broadleaf signalgrass, Brachiaria platyphylla), read-out: Visual Growth Reduction (%) 21 Days After Application BRAPP
[2] = CYPDI (small-flower flatsedge, Cyperus difformis), read-out: Visual Growth Reduction (%) 21 Days After Application CYPDI
[3] = CYPES (yellow nutsedge, Cyperus esculentus), read-out: Visual Growth Reduction (%) 21 Days After Application CYPES
[4] = CYPIR (rice flatsedge, Cyperus iria), read-out: Visual Growth Reduction (%) 21 Days After Application CYPIR
[5] = DIGSA (large crabgrass, Digitaria sanguinalis), read-out: Visual Growth Reduction (%) 21 Days After Application DIGSA
[6] = ECHCG (barnyardgrass, Echinochloa crus-galli), read-out: Visual Growth Reduction (%) 21 Days After Application ECHCG
[7] = ECHCO (junglerice, Echinochloa colonum), read-out: Visual Growth Reduction (%) 21 Days After Application ECHCO
[8] = LEFCH (Chinese sprangletop, Leptochloa chinensis), read-out: Visual Growth Reduction (%) 21 Days After Application LEFCH
[9] = ORYSJ (Oryza sativa, rice crop), read-out: Visual Growth Reduction (%) 21 Days After Application ORYSJ
[10] = ORYSK (Oryza sativa, rice crop), read-out: Visual Growth Reduction (%) 21 Days After Application ORYSK
[11] = SCPJU (Japanese bulrush, Schoenoplectus juncoides Roxb.), read-out: Visual Growth Reduction (%) 21 Days After Application SCPJU
[12] = SEBEX (hemp sesbania, Sesbania exaltata), read-out: Visual Growth Reduction (%) 21 Days After Application SEBEX

Nc1cc(-c2ccc3c(c2F)OC(F)(F)O3)nc(C(=O)O)c1Cl [Compound 41]
1 g ai/ha: GR90 ECHCO (ECHCO (Echinochloa colonum), probit analysis, dose for 90 percent growth reduction) | GR20 ORYSJ (ORYSJ (Oryza sativa, rice crop), probit analysis, dose for 20 percent growth reduction)
0.131 g ai/ha: GR80 DIGSA (DIGSA (Digitaria sanguinalis), probit analysis, dose for 80 percent growth reduction)
60 to 74%: pest or weed control at 17.5 g/ha [10]
75 to 84%: pest or weed control at 35 g/ha [10]
7 g ai/ha: GR90 CYPDI (CYPDI (Cyperus difformis), probit analysis, dose for 90 percent growth reduction)
0.0018 g ai/ha: GR50 ECHCG (ECHCG (Echinochloa crus-galli), probit analysis, dose for 50 percent growth reduction) | GR80 ECHCG (ECHCG (Echinochloa crus-galli), probit analysis, dose for 80 percent growth reduction) | GR90 ECHCG (ECHCG (Echinochloa crus-galli), probit analysis, dose for 90 percent growth reduction)
0.001 g ai/ha: GR50 DIGSA (DIGSA (Digitaria sanguinalis), probit analysis, dose for 50 percent growth reduction)
85 to 94%: pest or weed control at 17.5 g/ha [6] | pest or weed control at 17.5 g/ha [8] | pest or weed control at 17.5 g/ha [9] | pest or weed control at 70 g/ha [10]
4 g ai/ha: GR50 CYPDI (CYPDI (Cyperus difformis), probit analysis, dose for 50 percent growth reduction) | GR50 SEBEX (SEBEX (Sesbania exaltata), probit analysis, dose for 50 percent growth reduction)
0.0003 g ai/ha: GR50 ECHCO (ECHCO (Echinochloa colonum), probit analysis, dose for 50 percent growth reduction)
0.0415 g ai/ha: GR80 ECHCO (ECHCO (Echinochloa colonum), probit analysis, dose for 80 percent growth reduction)
95 to 100%: pest or weed control at 17.5 g/ha [1] | pest or weed control at 35 g/ha [1] | pest or weed control at 70 g/ha [1] | pest or weed control at 17.5 g/ha [2] | pest or weed control at 35 g/ha [2] | pest or weed control at 70 g/ha [2] | pest or weed control at 17.5 g/ha [3] | pest or weed control at 35 g/ha [3] | pest or weed control at 70 g/ha [3] | pest or weed control at 17.5 g/ha [4] | pest or weed control at 35 g/ha [4] | pest or weed control at 70 g/ha [4] | pest or weed control at 17.5 g/ha [5] | pest or weed control at 35 g/ha [5] | pest or weed control at 70 g/ha [5] | pest or weed control at 35 g/ha [6] | pest or weed control at 70 g/ha [6] | pest or weed control at 17.5 g/ha [7] | pest or weed control at 35 g/ha [7] | pest or weed control at 70 g/ha [7] | pest or weed control at 35 g/ha [8] | pest or weed control at 70 g/ha [8] | pest or weed control at 35 g/ha [9] | pest or weed control at 70 g/ha [9] | pest or weed control at 17.5 g/ha [11] | pest or weed control at 35 g/ha [11] | pest or weed control at 70 g/ha [11] | pest or weed control at 17.5 g/ha [12] | pest or weed control at 35 g/ha [12] | pest or weed control at 70 g/ha [12]
0.3 g ai/ha: GR50 BRAPP (BRAPP (Brachiaria platyphylla), probit analysis, dose for 50 percent growth reduction)
20 g ai/ha: GR90 LEFCH (LEFCH (Leptochloa chinensis), probit analysis, dose for 90 percent growth reduction)
9 g ai/ha: GR80 SEBEX (SEBEX (Sesbania exaltata), probit analysis, dose for 80 percent growth reduction)
0.0001 g ai/ha: GR50 CYPES (CYPES (Cyperus esculentus), probit analysis, dose for 50 percent growth reduction) | GR80 CYPES (CYPES (Cyperus esculentus), probit analysis, dose for 80 percent growth reduction) | GR90 CYPES (CYPES (Cyperus esculentus), probit analysis, dose for 90 percent growth reduction) | GR50 CYPIR (CYPIR (Cyperus iria), probit analysis, dose for 50 percent growth reduction) | GR80 CYPIR (CYPIR (Cyperus iria), probit analysis, dose for 80 percent growth reduction) | GR90 CYPIR (CYPIR (Cyperus iria), probit analysis, dose for 90 percent growth reduction) | GR50 SCPJU (SCPJU (Schoenoplectus juncoides Roxb.), probit analysis, dose for 50 percent growth reduction) | GR80 SCPJU (SCPJU (Schoenoplectus juncoides Roxb.), probit analysis, dose for 80 percent growth reduction) | GR90 SCPJU (SCPJU (Schoenoplectus juncoides Roxb.), probit analysis, dose for 90 percent growth reduction)
2 g ai/ha: GR80 BRAPP (BRAPP (Brachiaria platyphylla), probit analysis, dose for 80 percent growth reduction) | GR90 DIGSA (DIGSA (Digitaria sanguinalis), probit analysis, dose for 90 percent growth reduction) | GR20 ORYSK (ORYSK (Oryza sativa, rice crop), probit analysis, dose for 20 percent growth reduction)
6 g ai/ha: GR90 BRAPP (BRAPP (Brachiaria platyphylla), probit analysis, dose for 90 percent growth reduction) | GR80 CYPDI (CYPDI (Cyperus difformis), probit analysis, dose for 80 percent growth reduction) | GR50 LEFCH (LEFCH (Leptochloa chinensis), probit analysis, dose for 50 percent growth reduction)
13 g ai/ha: GR80 LEFCH (LEFCH (Leptochloa chinensis), probit analysis, dose for 80 percent growth reduction) | GR90 SEBEX (SEBEX (Sesbania exaltata), probit analysis, dose for 90 percent growth reduction)
